From PubChem BioAssay (NCI)
Several values for one entry are separate records, joined by “and”; a condition that tells them apart may be missing. Identical values can stand only once.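 A five-concentration, 48-hour dose response in 96-well plates underlies each endpoint, interpolated linearly between surrounding concentrations. GI50 = concentration required for 50% inhibition of growth. TGI is the concentration that stops growth completely.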

Columns and labels:
Experiment in all cases: NCI tumour cell line growth inhibition, 48 h
[1] = test system: A498 renal
[2] = test system: HCT-15 colon
[3] = test system: K-562 leukemia
[4] = test system: MOLT-4 leukemia
[5] = test system: SF-539 CNS
[6] = test system: SK-MEL-5 melanoma
[7] = test system: SR leukemia
[8] = test system: SW-620 colon
[9] = test system: U251 CNS
[10] = test system: UO-31 renal

SMILES | GI50 [1] | TGI [1] | GI50 [2] | TGI [2] | GI50 [3] | GI50 [4] | GI50 [5] | TGI [5] | GI50 [6] | TGI [6] | GI50 [7] | TGI [7] | GI50 [8] | TGI [8] | GI50 [9] | TGI [9] | GI50 [10] | TGI [10] | TGI [3] | TGI [4]
O=C1c2ccccc2-c2c1c1ccccc1c(=O)n2CCCNCCCn1c2c(c3ccccc3c1=O)C(=O)c1ccccc1-2 | 8.97 µM | 17.4 µM | 1.03 µM | 3.81 µM | 4.07 µM | 0.398 µM | 3.83 µM | 13 µM | 7.21 µM | 16.9 µM | 14.3 µM | > 50 µM | 0.852 µM | > 12.5 µM | 1.12 µM | 2.67 µM | 2.16 µM | > 50 µM |  | 
CC1=C(C)C(=O)c2c(c(C(=O)c3ccccc3)c3nc4ccccc4n3c2C)C1=O | > 100 µM | > 100 µM | > 100 µM | > 100 µM | > 100 µM | > 100 µM | > 100 µM | > 100 µM | > 100 µM | > 100 µM | > 100 µM | > 100 µM | > 100 µM | > 100 µM | 27.5 µM | 79.4 µM | > 100 µM | > 100 µM | > 100 µM | > 100 µM
Cc1ccc(Nc2nc(NCCO)c3ccccc3n2)cc1C | 0.0535 µM | 2.06 µM | 3.26 µM | 13.3 µM | 3.19 µM | 2.86 µM | 5.87 µM | 19.7 µM | 2.78 µM | 10.5 µM | 2.28 µM | 6.08 µM | 4.03 µM | 15.7 µM | 2.75 µM | 12.1 µM | 5.01 µM | 19 µM | 13 µM | 11 µM
O=C1NC(=O)C(C(=O)C(=O)Nc2ccc(Br)cc2)C(=O)N1 |  | > 100 µM |  | > 100 µM |  |  |  | > 100 µM |  | > 100 µM |  | > 100 µM |  | > 100 µM |  | > 100 µM |  | > 100 µM | > 100 µM | > 100 µM
O=[N+]([O-])c1ccc(N2CCN(Cc3ccccc3)CC2)c2c1no[n+]2[O-] | 1.52 µM | 4.35 µM | 0.805 µM | 2.46 µM | 1.05 µM | 0.194 µM | 1.54 µM | 3 µM | 1.73 µM | 3.73 µM | 0.0751 µM | 0.973 µM | 1.2 µM | 3.05 µM | 1.24 µM | 2.65 µM | 1.28 µM | 2.59 µM | 2.98 µM | 2.39 µM
CN(C)CCCCN1CCc2c(n(C)c3ccccc23)C1=O | > 59 µM and 19.9 µM | > 85.1 µM and 49 µM |  | 54.9 µM and 58.3 µM |  |  | 50.5 µM and 21.7 µM | 68.9 µM and 44 µM |  | 42.8 µM and 31.9 µM | 53.3 µM and 12.7 µM | > 100 µM and 35.9 µM |  | > 81.6 µM and 63.9 µM | 72.4 µM and 34.1 µM | 99.5 µM and > 60.1 µM |  | > 76.3 µM and 46.7 µM | 51.9 µM and > 59.4 µM | > 87.6 µM
CCN(CC)CCCN(c1cc(OC)cc2nccnc12)S(=O)(=O)c1ccc(C)cc1 |  | > 100 µM |  | > 100 µM |  |  |  | > 100 µM |  | > 100 µM |  | > 100 µM |  | > 100 µM |  | > 100 µM |  | > 100 µM | > 100 µM | > 100 µM
CC(C)(C)[Si](C)(C)OCC1CCC(n2cnc3c(NC(=O)c4ccccc4)ncnc32)O1 (stereo not drawn) |  | 35.5 µM |  | 39.2 µM |  |  |  | 32.9 µM |  | 23.7 µM |  | 53.9 µM |  | 35 µM |  | 32.9 µM |  | 3.16 µM | 39.5 µM | 39.6 µM
CN1CCN(Cc2ccc(-c3cc4ncnc(Nc5ccc(OCc6cccc(F)c6)c(Cl)c5)c4s3)o2)CC1 | 3.5 µM | 7.57 µM | 2.92 µM | 6.39 µM | 2.08 µM | 4.47 µM | 4.17 µM | 8.55 µM | 3.77 µM | 7.54 µM | 4.43 µM | 10 µM | 4.66 µM | 8.64 µM | 3.34 µM | 7.12 µM | 3.3 µM | 7.37 µM | 6.85 µM | 9.39 µM
Cc1[nH]c(=O)[nH]c(=O)c1N(CCF)CCCl | 247 µM and 311 µM | 507 µM and 466 µM and 967 µM | 182 µM and 310 µM and 186 µM | 503 µM and 486 µM and 1330 µM | 403 µM and 215 µM | 60.8 µM and 80.6 µM and 43.1 µM | 499 µM and 153 µM | 478 µM and 1680 µM and 768 µM | 388 µM | 394 µM and 788 µM and 699 µM |  | 1870 µM | 321 µM and 289 µM and 147 µM | 1100 µM and 805 µM | 212 µM | 693 µM and 1220 µM and 1200 µM | 723 µM and 245 µM | 1940 µM and 1110 µM | 757 µM and 1350 µM and 1110 µM | 254 µM and 393 µM and 563 µM
CCN1C(=O)C/C(=C\C(C)=O)Nc2ccccc21 | > 100 µM | > 100 µM | > 100 µM | > 100 µM |  |  |  | > 100 µM |  | > 31.6 µM |  | > 100 µM |  | > 100 µM |  | > 100 µM |  | > 100 µM | > 100 µM | > 100 µM
